Data: BindingDB's records for doi:10.1021/cb300426u (University of St. Andrews, 2013)

Target: Glucose-1-phosphate thymidylyltransferase (Pseudomonas aeruginosa (strain ATCC 15692 / DSM 22644 / CIP 104116 / JCM 14847 / LMG 12228 / 1C / PRS 101 / PAO1), UniProt Q9HU22)
Assay: Inhibition Assay
Description: Inhibition assay using glucose-1-phosphate thymidylyltransferase (RmlA).

Glucose-1-phosphate thymidylyltransferase, sequence (Q9HU22 whole entry): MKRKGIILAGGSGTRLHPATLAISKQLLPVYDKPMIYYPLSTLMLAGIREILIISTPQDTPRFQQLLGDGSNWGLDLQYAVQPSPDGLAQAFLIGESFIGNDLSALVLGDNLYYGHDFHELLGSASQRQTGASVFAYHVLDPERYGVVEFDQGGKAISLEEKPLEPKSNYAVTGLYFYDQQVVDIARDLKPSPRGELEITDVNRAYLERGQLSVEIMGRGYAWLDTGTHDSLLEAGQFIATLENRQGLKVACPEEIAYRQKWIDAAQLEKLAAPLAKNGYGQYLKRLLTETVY

Question: For `Nc1c(O)n(Cc2ccccc2)c(=O)[nH]c1=O` [Analogue of 1a, 2], which IC50 is on record?
Answer: 1140 nM

Question: Which IC50 does the source give for `CN(C(=O)c1ccccc1)c1c(N)n(Cc2ccccc2)c(=O)[nH]c1=O` [Analogue of 1a, 8f] here?
Answer: > 60000 nM

Question: With `CNc1c(N)n(Cc2ccccc2)c(=O)[nH]c1=O` [6-azanyl-5-(methylamino)-1-(phenylmethyl)pyrimidine-2,4-dione] as the compound, how does the IC50 read?
Answer: > 60000 nM

Question: `CCN(c1c(N)n(Cc2ccccc2)c(=O)[nH]c1=O)S(=O)(=O)c1ccccc1` [Analogue of 1a, 8b] was tested. Which IC50 did it give?
Answer: 102 nM

Question: How did the IC50 turn out when `CCCCn1c(N)c(N(C)C(=O)c2ccco2)c(=O)[nH]c1=O` [Analogue of 1a, 5] was run?
Answer: 5900 nM

Question: With `CCCCn1c(N)c(N(C)S(=O)(=O)c2ccccc2)c(=O)[nH]c1=O` [Analogue of 1a, 1] as the compound, how does the IC50 read?
Answer: 210 nM

Question: `CCCN(c1c(N)n(Cc2ccccc2)c(=O)[nH]c1=O)S(=O)(=O)c1ccccc1` [Analogue of 1a, 8c] was tested. Which IC50 did it give?
Answer: > 10000 nM

Question: `Nc1c(NS(=O)(=O)c2ccccc2)c(=O)[nH]c(=O)n1Cc1ccccc1` [Analogue of 1a, 15a] was tested. Which IC50 did it give?
Answer: 1320 nM

Question: Which IC50 does the source give for `CN(c1c(N)n(Cc2ccccc2)c(=O)[nH]c1=O)S(=O)(=O)c1ccco1` [Analogue of 1a, 8t] here?
Answer: 105 nM

Question: `CN(c1c(N)n(Cc2ccccc2)c(=O)[nH]c1=O)S(=O)(=O)c1ccccc1` [Analogue of 1a, 8a] was tested. Which IC50 did it give?
Answer: 73 nM
